Literature values in patent publication US9238007B2, “Method for the production of a medicament containing tadalafil” (RATIOPHARM GMBH, priority 2007, dated 2016).

Settings: according to WO 01/08687

solubility in water: about 2 μg/ml
SMILES: CN1CC(=O)N2[C@H](c3ccc4c(c3)OCO4)c3[nH]c4ccccc4c3C[C@@H]2C1=O [Tadalafil, (6R,12aR)-6-(1,3-benzodioxol-5-yl)-2-methyl-1,2,3,4,6,7,12,12a-octahydropyrazino [2,1 :6,1]pyrido[3,4-b]indole-1,4-dione]
